# Assay results reported in patent US4552874A, “Pyrazolooxazines, pyrazolothiazines, and pryazoloquinolines and their use as medicaments” (Bayer Aktiengesellschaft, priority 1982, dated 1985).
# Experiments:
# [1] = tested on: Lipoxygenase in PMN Leucocytes; assay: Inhibition of lipoxygenase in PMN leucocytes (liberation of 5-HETE and leukotriene B4); format: cell-based, humans and rabbits; details: in vitro
# Procedure: The polymorphonuclear leucocytes of humans and of rabbits metabolise arachidonic acid to 5-hydroxy-5,8,11,14-eicosatetraenoic acid (5-HETE) and leukotriene B4 (5S, 12R-dihydroxy-6 cis, 8,10-trans-14 cis-eicosatetraenoic acid). The inhibition of the liberation of 5-HETE and leukotriene B4 from the leucocytes provides a measure of the lipoxygenase-inhibitory effect of the compounds according to the invention. (Compare Table 1).
# The test with human leucocytes is carried out by the method of Borgeat and Samuelsson (j. Biol. Chem. 254; 2643, 1979 and Proc. Natl. Acad. Sci. USA, 76, 2148 (1979), and with rabbit leucocytes by the method of Walker and Parish (Inter. Archs. Allergy appl. Immun. 66, 83, 1981).
# Lipoxygenase in platelet = target: T1, Lipoxygenase in platelet (Homo sapiens, UniProt P18054); assay: Inhibition of lipoxygenase in washed human platelets (HETE synthesis from radioactively labelled arachidonic acid); format: cell-based; details: in vitro
# T1 construct: the metabolism of radioactively labelled arachidonic acid on washed human platelets is used; endogenous in cells; host or cells: washed human platelets
# T1 sequence (P18054 1-663): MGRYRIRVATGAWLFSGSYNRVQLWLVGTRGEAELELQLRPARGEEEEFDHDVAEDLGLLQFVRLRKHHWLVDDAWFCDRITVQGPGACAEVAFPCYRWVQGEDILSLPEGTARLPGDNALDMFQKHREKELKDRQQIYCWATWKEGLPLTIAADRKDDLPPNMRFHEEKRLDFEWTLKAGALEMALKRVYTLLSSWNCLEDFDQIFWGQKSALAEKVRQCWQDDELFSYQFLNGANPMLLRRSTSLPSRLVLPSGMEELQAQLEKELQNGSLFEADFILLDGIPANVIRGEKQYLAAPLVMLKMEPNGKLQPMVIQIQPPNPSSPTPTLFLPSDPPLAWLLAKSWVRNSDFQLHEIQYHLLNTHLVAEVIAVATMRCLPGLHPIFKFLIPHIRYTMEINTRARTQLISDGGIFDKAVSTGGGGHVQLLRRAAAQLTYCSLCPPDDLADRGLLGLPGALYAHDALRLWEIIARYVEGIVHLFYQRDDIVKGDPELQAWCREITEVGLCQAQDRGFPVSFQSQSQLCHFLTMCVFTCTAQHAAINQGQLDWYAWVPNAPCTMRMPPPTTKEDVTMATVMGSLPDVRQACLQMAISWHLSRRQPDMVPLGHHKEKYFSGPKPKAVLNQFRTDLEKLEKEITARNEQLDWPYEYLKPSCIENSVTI
# Procedure: In this test method, the metabolism of radioactively labelled arachidonic acid on washed human platelets is used. In this in vitro test, the radioactively labelled metabolites are extracted from the reaction mixture and separated by thin-layer chromatography. The autoradiogram is evaluated on a thin-layer scanner. Under these test conditions, the labelled metabolites are separated from the unreacted arachidonic acid and can then be evaluated quantitatively. The distribution of radioactivity over the products of cyclooxygenase formed during the metabolism, thromboxane B2 (TXB2) and 12-hydroxy-5,8,10-heptadecatrienoic acid (HHT) and the product of lipoxygenase, 12-hydroxy-5,8,11,14-eicosatetraenoic acid (HETE), under the influence of the inhibitors provides a measure of the inhibition of the enzymes.
# The inhibition of lipoxygenase by the compounds according to the invention can be measured by the inhibition of synthesis of HETE. It emerges that the synthesis of TXB2 and of HHT remains unaffected, whilst the conversion of arachidonic acid decreases. […] (Compare Table 1).
# carrageenan oedema = assay: Inhibition of carrageenan oedema formation; format: in vivo; details: rat, oral administration of 25 mg/kg
# Description: The compounds according to the invention are also active in vivo. […] The compounds according to the invention also reduce the formation of oedema in the model of carrageenan inflammation, (compare Table 3) and inhibit the formation of metastases from B-16 melanoma (method of Honn, et. al. Science 212, 1270, 1981).
Structure (SMILES),Minimum concentration (g/ml) for inhibition of Lipoxygenase in PMN Leucocytes [1],further results
Clc1cc(Cl)c2c(c1)Nc1[nH]ncc1O2,10^-6 g/ml,–
CN(C)S(=O)(=O)c1ccc2c(c1)Oc1cn[nH]c1N2,–,Minimum concentration (g/ml) for inhibition of Lipoxygenase in platelet (Lipoxygenase in platelet): 10^-5 g/ml
Cn1ncc2c1Nc1ccccc1O2,10^-6 g/ml,Minimum concentration (g/ml) for inhibition of Lipoxygenase in platelet (Lipoxygenase in platelet): 10^-6 g/ml
Clc1ccc2c(c1)Nc1[nH]ncc1S2,–,Minimum concentration (g/ml) for inhibition of Lipoxygenase in platelet (Lipoxygenase in platelet): 10^-6 g/ml
Cc1ccc2c(c1)Nc1c(cnn1-c1ccccc1)S2,10^-5 g/ml,–
CN1c2ccccc2Cc2cn(C)nc21,> 10^-5 g/ml,–
CN1c2ccccc2Cc2cnn(-c3ccccc3)c21,> 10^-5 g/ml,–
CN1c2ccccc2Cc2cnn(C(=O)c3ccc(Cl)cc3)c21,> 10^-5 g/ml,–
c1ccc(N2c3ccccc3Cc3cn[nH]c32)cc1,> 10^-5 g/ml,–
COc1ccc2c(c1)Nc1[nH]ncc1O2,< 10^-6 g/ml,–
CCN1c2cc(OC)ccc2Oc2cn[nH]c21,< 10^-6 g/ml,–
COc1ccc2c(c1)N(C)c1nn(C)cc1O2,> 10^-5 g/ml,–
Oc1ccc2c(c1)Nc1[nH]ncc1O2,< 10^-6 g/ml,–
COc1ccc2c(c1)Oc1cn[nH]c1N2,< 10^-6 g/ml,–
c1ccc(CN2c3ccccc3Oc3cn[nH]c32)cc1,10^-6 g/ml,–
CN1c2ccccc2Oc2cn(CCO)nc21,> 10^-5 g/ml,–
CCOC(=O)CN1c2ccccc2Oc2cn[nH]c21,> 10^-5 g/ml,–
CC(=O)n1cc2c(n1)N(C)c1ccccc1S2,> 10^-5 g/ml,–
CC(C)N1c2ccccc2Oc2cn[nH]c21,< 10^-6 g/ml,–
c1ccc2c(c1)Oc1cn[nH]c1N2CC1CCCCC1,10^-5 g/ml,–
COc1ccc2c(c1)Nc1c(cnn1C(C)=O)O2,10^-5 g/ml,–
CCN1c2cc(OCC(=O)O)ccc2Oc2cn(C)nc21,10^ -5 g/ml,–

Structure (SMILES),Minimum concentration (g/ml) for inhibition of Lipoxygenase in PMN Leucocytes [1],further results
CN1c2ccccc2Cc2cn(C(=O)OCc3ccccc3)nc21,> 10^-5 g/ml,–
Cn1cc2c(n1)N(c1ccccc1)c1ccccc1C2,> 10^-5 g/ml,–
Cn1ncc2c1N(c1ccccc1)c1ccccc1C2,> 10^-5 g/ml,–
CN1c2ccccc2Oc2cn(CCOc3ccc4ccccc4c3)nc21,> 10^-5 g/ml,–
CCN1c2cc(O)ccc2Oc2cn(C)nc21,< 10^-5 g/ml,–
CCN1c2cc(OCC(=O)OCc3ccccc3)ccc2Oc2cn(C)nc21,10^-5 g/ml,–
Cn1cc2c(n1)N(CC1CCCCC1)c1ccccc1O2,> 10^-5 g/ml,–
CC(C)N1c2ccccc2Oc2cn(C)nc21,> 10^-5 g/ml,–
CN1c2ccccc2Oc2cn(Cc3ccc(Cl)c(Cl)c3)nc21,> 10^-5 g/ml,–
FC(F)(F)c1ccc2c(c1)Nc1[nH]ncc1O2,< 10^-5 g/ml,–
FC(F)(F)Sc1ccc2c(c1)Nc1[nH]ncc1O2,< 10^-5 g/ml,–
c1ccc(N2c3ccccc3Oc3cn[nH]c32)cc1,10^-5 g/ml,–
CN1c2cc(OCc3ccccc3)ccc2Oc2cn[nH]c21,< 10^-5 g/ml,–
COc1ccc2c(c1)Oc1cn[nH]c1N2C,< 10^-5 g/ml,–
COc1ccc2c(c1)Oc1cnn(C)c1N2C,> 10^-5 g/ml,–
c1ccc(COCCN2c3ccccc3Oc3cn[nH]c32)cc1,10^-5 g/ml,–
OCCN1c2ccccc2Oc2cn[nH]c21,< 10^-5 g/ml,–
CCN1c2ccc(OC)cc2Oc2cn[nH]c21,< 10^-5 g/ml,–
c1c2c(cc3c1OCO3)Oc1cn[nH]c1N2,< 10^-5 g/ml,–
Clc1ccc2c(c1)Nc1[nH]ncc1O2 [Compound 2],–,inhibition in vivo at 25 mg/kg (carrageenan oedema): 57.8%
Cc1ccc2c(c1)Nc1[nH]ncc1O2 [Compound 3],–,inhibition in vivo at 25 mg/kg (carrageenan oedema): 41.4%
c1ccc(-n2ncc3c2Nc2ccccc2O3)cc1 [Compound 9],–,inhibition in vivo at 25 mg/kg (carrageenan oedema): 75.1%

Structure (SMILES),Minimum concentration (g/ml) for inhibition of Lipoxygenase in PMN Leucocytes [1],further results
CN1c2ccccc2Oc2cn[nH]c21 [Compound 10],–,inhibition in vivo at 25 mg/kg (carrageenan oedema): 73.4%
O=S1(=O)c2ccccc2Nc2[nH]ncc21 [Compound 16],–,inhibition in vivo at 25 mg/kg (carrageenan oedema): 45.4%
CC(=O)n1cc2c(n1)N(C)c1ccccc1C2 [Compound 27],–,inhibition in vivo at 25 mg/kg (carrageenan oedema): 62.4%
CN1c2nn(C)cc2Cc2cccc(Br)c21 [Compound 30],10^-5 g/ml,–
COc1ccc2c(c1)N(C)c1[nH]ncc1O2 [Compound 36],–,inhibition in vivo at 25 mg/kg (carrageenan oedema): 60%
"CCOC(=O)Cn1cc2c(n1)N(C1CCCCC1)c1ccccc1O2 [Compound 39, Ethyl (9-cyclohexylpyrazolo[4,3-b][1,4]benzoxazin-2-yl) acetate]",–,inhibition in vivo at 25 mg/kg (carrageenan oedema): 47.5%
"O=C(O)Cn1cc2c(n1)N(C1CCCCC1)c1ccccc1O2 [Compound 40, 9-Cyclohexylpyrazolo[4,3-b][1,4]benzoxazine-2-acetic acid]",> 10^-5 g/ml,inhibition in vivo at 25 mg/kg (carrageenan oedema): 44%
CN1c2ccccc2Oc2cn(C(=O)c3ccccn3)nc21 [Compound 42],–,inhibition in vivo at 25 mg/kg (carrageenan oedema): 67.3%
"CC(=O)n1cc2c(n1)N(C)c1ccccc1O2 [Compound 44, 2-Acetyl-9-methylpyrazolo[4,3-b][1,4]benzoxazine]",–,inhibition in vivo at 25 mg/kg (carrageenan oedema): 70%
CCN1c2cc(OC)ccc2Oc2cnn(C)c21 [Compound 50],10^-5 g/ml,–
Cn1cc2c(n1)N(Cc1ccccc1)c1ccccc1O2 [Compound 60],> 10^-5 g/ml,–
CCCCOc1ccc2c(c1)N(C)c1[nH]ncc1O2 [Compound 70],< 10^-5 g/ml,–
CN1c2cc(SC(F)(F)F)ccc2Oc2cn[nH]c21 [Compound 71],< 10^-5 g/ml,–
CC(=O)n1cc2c(n1)N(C)c1ccccc1C2 [drawing 38],> 10^-5 g/ml,–
COc1ccc2c(c1)N(C)c1[nH]ncc1O2 [drawing 47],< 10^-6 g/ml,–
CCN1c2cc(OC)ccc2Oc2cnn(C)c21 [drawing 49],10^-6 g/ml,–
CCOC(=O)Cn1cc2c(n1)N(C1CCCCC1)c1ccccc1O2 [drawing 50],> 10^-5 g/ml,–
CN1c2ccccc2Oc2cn(C(=O)c3ccccn3)nc21 [drawing 53],> 10^-5 g/ml,–
CC(=O)n1cc2c(n1)N(C)c1ccccc1O2 [drawing 55],> 10^-5 g/ml,–
c1ccc2c(c1)Oc1cn[nH]c1N2C1CCCCC1 [drawing 56],10^ -6 g/ml,–
c1ccc2c(c1)Oc1cn[nH]c1N2C1CCCCC1 [drawing 59],> 10^-6 g/ml,–
